As a reminder, the melting point is the temperature, or range, at which the solid turns liquid.

Consider `CC(C)(C)C(=O)Nc1nc(Nc2cccc(Br)c2)c2c(n1)[nH]c1ccccc12`, for which the melting point lay within 287 to 288 °C. In turn, `Cn1c(=O)c(-c2ccc(Cl)cc2Cl)cc2c3cc(-c4nc(NS(C)(=O)=O)no4)ccc3n(C)c21` registered a melting point of 263 to 266 °C. Take `Cc1cccc2c1Sc1nccnc1N2`: the melting point fell in the range of 165 to 166 °C. As for `CC(C)(C)OC(=O)N1[C@@H](C(=O)O)C[C@H](S(=O)(=O)c2ccccc2)[C@H]1c1ccccc1F` (racemic), the figure is 186 °C; as for `Fc1ccc(-c2ncc(Br)cn2)cc1F`, 148 °C; as for `COc1c([N+](=O)[O-])cc(C)c(C)c1[N+](=O)[O-]`, 67.3 to 67.6 °C. In turn, `CCCCOc1ccc(S(C)(=O)=O)cc1-c1nc2c(CC)n(C3CN(C(C)C)C3)nc2c(=O)[nH]1` showed a melting point of 209 to 213 °C. In the case of `COc1ccc(COc2cccc(C(=O)Nc3ccc(C#N)cn3)c2)cc1`, the melting point was in the range of 132 to 134 °C. In turn, `COC(=O)C(NCc1cn(Cc2ccccc2)c2ccccc12)c1ccccc1` (racemic) returned a melting point of 72 to 75 °C.

For `O=[N+]([O-])c1oc2ccc(CCO)cc2c1-c1ccc(CO)cc1`, the melting point lay within 135 to 137 °C.

For the molecule `Cc1nc2c(Cc3ccccc3)cnn2c(=O)[nH]1`, the melting point came to 225 °C. `CN(CC#Cc1cc(CN2CCOCC2)cc2c(=O)c(C(=O)NCc3ccc(Cl)cc3)cn(C)c12)CCO` registered a melting point of 148 to 149 °C. Consider `O=c1cc(Cl)c2nc3ccc(F)cc3sc-2c1Cl`, for which the melting point is 245 to 247 °C. As for `Cc1cc(-c2coc3c(C(C)(C)C)cc(C)cc23)c(O)c(C(C)(C)C)c1`, the figure is 132 to 134 °C. With `COc1ccc(C(=O)c2c(N)sc(C)c2C)cc1` the figure was 132 to 133 °C; with `CCc1cc(Br)c2c(c1)NC(=O)C2=O`, 219 to 220 °C. `CC(C)OCC(=O)NC1CCN(CC23CC(c4ccccc42)c2ccc(Cl)cc23)CC1` (configuration not stated) gave a melting point of 50 to 53 °C. In the case of `COc1cc(C(O)C(CO)[N+](=O)[O-])cc(OC)c1OC` (configuration not stated), the melting point lay within 155 to 159 °C. As for `Cc1cc(C)cc(OC(=O)C(Cl)c2ccccc2)c1` (configuration not stated), the figure is 79 °C; as for `O=C1c2ccccc2C(=O)N1CCc1cccc(C(F)(F)F)c1`, 69 to 71 °C. For the molecule `CCOc1c(C)c(N2CCN(c3ccc(C)cc3)CC2)c(C)c2c1OC(C)C2` (configuration not stated), the melting point lay within 96 to 98 °C. `CCOC(=O)C(=O)Nc1ccc2c(=O)n3c(nc2c1)C(=Cc1ccc(OC)cc1OC)CC3`: the melting point lay within 285 to 288 °C. `CCOC(=O)CCc1ccc(OCc2ccc(Cn3nc(C(C)(C)C)cc3C(C)(C)C)cc2)cc1F` had a melting point of 73 to 74 °C. `CCCCc1nc2c(O)ccc(CCN(C)C)c2[nH]1` yielded a melting point of 97 to 105 °C. In the case of `COC(=O)c1ccc(C(=O)Nc2sc3c(c2C(=O)NCc2ccc4c(c2)OCO4)CCCC3)cc1`, the melting point is 138 °C. The molecule `COCCOc1cc(N)c([N+](=O)[O-])cc1I` displayed a melting point of 121 to 122 °C. With `Cc1nc2cc(S(=O)(=O)n3c(CCCC(=O)O)cc4nc(Cl)ccc43)ccc2s1` the figure was 173 °C. As for `CNc1cc(-c2sc(N)nc2-c2cccc(C)n2)ccc1[N+](=O)[O-]`, the figure is 100 to 102 °C; as for `O=C(CC1CCCCC1)Nc1c(Cl)ccc2nc(N3CCC(c4nnn[nH]4)CC3)ccc12`, 295 to 300 °C. In the case of `Cc1cccc2c(=O)nc(-c3cccc(C(=O)O)n3)sc12`, the melting point lay within 260 to 261 °C. In turn, `O=c1[nH]c(=O)c2ccncc2[nH]1` had a melting point of 365 °C. In turn, `O=C(Nc1ccc(-n2nc(C(F)(F)F)cc2C(F)(F)F)cc1)N1CCOCC1` registered a melting point of 185 to 186 °C. Regarding `CCOC(=O)c1cn(C2CC2)c2oc(CN3CCOCC3)cc2c1=O`, the melting point lay within 196 to 198 °C. Consider `CCCCOc1cc(=O)n(CCCC)c2ccccc12`, for which the melting point fell in the range of 50 to 52 °C. Take `O=C1COc2ccc(C3=Nc4ccccc4SC3c3ccccn3)cc2N1` (configuration not stated): the melting point was in the range of 168 to 170 °C.

As to `COC(=O)Cc1ccc(-c2nc3ccccc3o2)cc1`, the melting point was in the range of 109 to 112 °C. `CCc1oc2ccccc2c1C(=O)c1ccc(OC)cc1` had a melting point of 81 °C. With `CC1(C)c2cc(OS(C)(=O)=O)ccc2OC1N1CCCCC1` (configuration not stated) the figure was 97 to 98 °C; with `C=CCc1ccc(O)c(-c2cc(CC=C)ccc2O)c1`, 101 to 103 °C. Consider `C/C(=C(\C#N)C(N)=S)N1CCCN(c2ccccn2)CC1`, for which the melting point is 155 to 157 °C. In turn, `COc1cc(Cl)cnc1OCC#Cc1ccc(Cl)cc1` had a melting point of 109 to 110 °C.

In turn, `CCc1cccc(CC)c1NC(=O)NCC1(c2ccccc2)CC1` gave a melting point of 166 to 168 °C. `COc1cc(O)ccc1/C=C/C(=O)CC(=O)/C=C/c1cc(OCc2ccccc2)ccc1-c1ccccc1` gave a melting point of 175 to 180 °C. `CCCN(CCC)CC1CCCN(CCNC(=O)N2c3ccccc3C(=O)Nc3cccnc32)C1` (configuration not stated) yielded a melting point of 153 to 155 °C.

`NC(=O)c1cc(NC(=O)c2ccccc2)ccc1SSc1ccc(NC(=O)c2ccccc2)cc1C(N)=O` registered a melting point of 273 to 274 °C. With `CCOC(C#N)Cc1ccc(O)c(N)c1` (configuration not stated) the figure was 114 to 115 °C.

Turning to `CN(C)Cc1cccc(OCCCNC(=O)COC(=O)c2ccc(Cl)c(Cl)c2)c1`, the melting point fell in the range of 48 to 50 °C. `CN1C(=O)CN=C(c2ccccc2F)c2cc(NC(=O)NCCCO)ccc21` registered a melting point of 118 to 119 °C.

In the case of `CCC1N=C(c2ccccc2Cl)c2cc(CCC(=O)O)sc2-n2c(C)nnc21` (configuration not stated), the melting point fell in the range of 218 to 220 °C. The molecule `CCOC(=O)c1nnc2ccc(-c3cccs3)cc2c1O` showed a melting point of 258 to 260 °C. As to `O=C1Nc2ccc(-c3ccc(C=NO)c(F)c3)cc2C12CCCCC2`, the melting point was 240 to 242 °C.

`CN1CCc2c(cccc2NC(=O)c2ccccc2Br)C1` came in with a melting point of 206 to 208 °C.

Take `CN(C(=O)c1ccc(N)cc1)c1ccccc1N`: the melting point is 159 to 160 °C. In turn, `CC(=O)Nc1ccc(-c2cccc(-n3c(-c4cccnc4N)nc4cc(-c5cccc(NC(C)=O)c5)c(-c5cccnc5)nc43)c2)cc1` showed a melting point of 166 to 168 °C.

`O=C1C(=O)N(CCCCN2CCN(C(c3ccccc3)c3ccccc3)CC2)c2ccc(Br)cc21` showed a melting point of 132 to 133 °C. As for `CCOc1ccccc1O[C@@H](c1ccccc1)[C@@H](CO)OS(C)(=O)=O` (racemic), the figure is 83 to 86 °C. In turn, `O=C(NC(=O)c1c(Cl)cccc1Cl)Nc1cc(-c2ccc(C(F)(F)F)cc2)on1` came in with a melting point of 227 to 230 °C. `O=C(O)c1ccc(OCCCCCCO)cc1`: the melting point was 132 to 135 °C. On to `COc1cc(C(=O)Nc2c(C)cc3cn(CC(F)(F)F)nc3c2C(=O)NC(C)C)n(-c2ncccc2Cl)n1`, for which the melting point was 178 to 181 °C. `CCSN(C)C(=O)Nc1ccc(Cl)c(Cl)c1` yielded a melting point of 71 °C. In the case of `CC(=O)Nc1c(F)ccc2nc(C)ccc12`, the melting point fell in the range of 232 to 235 °C. The molecule `Cn1c(COc2ccc(CC3SC(=O)NC3=O)cc2)nc2ccc(Oc3ccc(NC(=S)Nc4cccc5ccccc45)cc3)cc21` (configuration not stated) showed a melting point of 186 to 188 °C.

`Cc1nc2cc(-c3ccc(C=C4SC(=O)NC4=O)cc3)cc(C34CC5CC(CC(C5)C3)C4)c2o1` returned a melting point of 354 to 360 °C. In the case of `CN(C)C=Nc1[nH]nc(NCc2ccccc2)c1C#N`, the melting point is 197 to 200 °C. `Nc1ncc(CN2CC=C(c3ccccc3)CC2)c(N)n1` yielded a melting point of 239 to 241 °C. With `O=C(O)c1cc(NCc2c(F)c(F)c(C(F)(F)F)c(F)c2F)ccc1Br` the figure was 70 °C; with `O=C(O)C(CCc1ccccc1)(CCc1ccccc1)C(=O)O`, 168 to 172 °C; with `Cn1cnnc1C(O)(c1ccc(Cl)cc1)c1ccc2[nH]c(=O)cc(-c3cccc(Cl)c3)c2c1` (configuration not stated), over 260 °C. `CN(c1ccc(Cl)cc1)S(=O)(=O)c1cn(S(=O)(=O)N(C)C)cn1` displayed a melting point of 132 °C. As for `NCCOc1ccc(/C(=C(\c2ccccc2)C(F)(F)F)c2ccccc2)cc1`, the figure is 71 to 76 °C; as for `COC(=O)c1cc2cc(C(=O)c3ccc(F)cc3)sc2s1`, 220 °C; as for `CCOC(=O)Cc1sc(Sc2cc(C(=O)OCC)nc3c(OC)cccc23)nc1C`, 120 to 121 °C.

For `O=C(C1CCCCC1)N1CC(=S)N2CCCc3ccccc3C2C1` (configuration not stated), the melting point was in the range of 150 to 151 °C. The molecule `O=C1c2ccc(-c3cccc(C(F)(F)F)c3)cc2CC1Br` (configuration not stated) displayed a melting point of 96 °C. For the molecule `O=c1oc2ccccc2cc1CCN1CCC(Nc2nc3ccccc3n2Cc2cccs2)CC1`, the melting point was 165 °C. With `O=C1OC(=O)c2c1cccc2C(F)(F)F` the figure was 65 to 67 °C; with `CCOC(=O)C(C)(C)Oc1ccc(OCCn2c(=O)sc3cc(C(=NOC)c4cccc(Cl)c4)ccc32)cc1`, 93 to 98 °C. Take `N#Cc1ccc(OCc2ccsc2)cc1OC(C(=O)O)c1cccc(Cl)c1` (racemic): the melting point was 134 to 136 °C. For the molecule `Cc1oc(-c2ccccc2)nc1CCOc1ccc(NC2SC(=O)NC2=O)cc1` (configuration not stated), the melting point is 179 to 180 °C. With `OCC1NCCc2occc21` (configuration not stated) the figure was 66 to 69 °C.

In turn, `O=[N+]([O-])c1ccc(S)c(Cl)c1` returned a melting point of 77 to 78 °C.

With `CC1=NCN(c2cc(Br)cs2)O1`, the melting point lay within 66 to 67 °C. In turn, `CCc1c(Cl)cc(C(C)(C)C)c(O)c1-c1nc2ccc(S(=O)(=O)C(F)(F)F)cc2c(=O)[nH]1` gave a melting point of 285 to 286 °C. On to `O=C(Nc1ccc(O[C@H]2CC[C@H](C(=O)O)CC2)cc1)c1nnc(Nc2cc(F)c(F)cc2F)o1`, for which the melting point is 251 to 253 °C. `CCCNC(=O)NS(=O)(=O)N1CCC(CCNC(=O)c2cc(Cl)ccc2OC)CC1` came in with a melting point of 140 to 142 °C.

`CS(=O)(=O)c1ccc(C(=O)O)c([N+](=O)[O-])c1` registered a melting point of 204 to 206 °C.

In turn, `FC(F)C(Cl)=NC(c1ccccc1)(c1ccccc1)c1ccccc1` returned a melting point of 154 to 156 °C.

Source of the values: a melting point compilation (Tetko et al.; mined from patent text by program, amines drawn as free bases though some values may be those of a salt).
